Each block holds one substance with its values, some of them ahead of it.
Experiments:
[1] = test system: WT and KitWsh-/- mice; experiment: Neuropeptide experiment: intradermal neuropeptide in WT and KitWsh-/- mice, skin mRNA by RT-PCR; type: in vivo, mouse; settings: 100 μL of 1 μM intradermally, 6 hrs
Procedure: WT and KitWsh^−/− mice were injected with PBS or 100 μL of 1 μM neuropeptide (SP, substance P; ADM-2, adrenomedullin-2; PACAP, pituitary adenylate cyclase-activating peptide) intradermally, as indicated. Skin biopsies were harvested 6 hrs after injection and mRNA expressions of (a) proteases (chymase, tryptase, Mmp-9 and Mmp-1) and (b) proinflammatory cytokines (Cxcl2 and Tnf-α) were assessed by RT-PCR. Statistics: two-way ANOVA*p<0.05, **p<0.01, ***p<0.001 (n=3).
For the neuropeptide experiment, 100 μL of 1 μM neuropeptide or PBS was injected into mice intradermally. Skin biopsies were taken 6 hrs after injection.
(§1) cDNA was synthesized from RNA using the iScript cDNA Synthesis Kit (BioRad, Hercules, CA) according to the manufacturer's protocol. cDNA was normalized using a NanoDrop spectrophotometer (Thermo Fisher Scientific Inc.). Probes from TagMan Gene Expression Assays (Applied Biosystems ABI, Foster City, CA) were used to analyze gene expressions with following to the manufacturer's instructions. Gapdh mRNA was used as an internal control to validate RNA for each sample. mRNA expression was calculated as the relative expression to Gapdh mRNA, and all data are presented as fold change of each control.
Rosacea flare-ups are frequently initiated by face flushing due to neuronal dysfunction and increased release of pituitary adenylate cyclase-activating peptide (PACAP) (Schwab et al., 2011). To investigate whether neuropeptides (NPs) require MC activation for the development of the inflammatory response in rosacea, 100 μL of 1 μM NP (substance P: SP, adrenomedullin-2: ADM-2, PACAP) was injected intradermally into WT and MC deficient mice. […] Moreover, these same MC enzymes can further increase the levels of free Cath LL-37 and amplify the inflammatory response.

[2] = test system: WT (C57BL/6) and MC-deficient (KitWsh-/-) mice; experiment: Rosacea mouse model: intradermal Cath LL-37 in WT and MC-deficient (KitWsh-/-) mice; type: in vivo
Procedure: (a) Human biopsy samples from healthy and rosacea subjects were assessed for chymase and Mmp-9 mRNA expressions (n=6). (b) Photographs of the rosacea mouse model. 24 hrs after removal of the hair, the back skins of wild type (C57BL/6) and MC-deficient (KitWsh^−/−) mice were injected intradermally with 50 μl of 320 μM Cath LL-37 or filtered PBS twice a day for 2 days. Clinical observation was carried out for 72 hours. (c) Skins from WT, WT MC reconstituted KitWsh^−/− and KitWsh^−/− mice were challenged as indicated and harvested after 72 hours of observation. Mmp-9 mRNA expression in each sample was assessed by RT-PCR. (d) Assessment of MMP protease activities in WT mouse skin following challenge with PBS or the indicated amounts of Cath LL-37. (e) Skin biopsies from WT or KitWsh^−/− mice were analyzed by RT-PCR for the expression of MC proteases at 0, 1, 4, and 24 hrs after Cath LL-37 challenge. Statistics: Mann Whitney test, one-way and two-way ANOVA*p<0.05, **p<0.01, ***p<0.001 (1b-1e: n=3).
(§2) (a) Bone marrow derived mouse MCs were challenged in vitro with 10 ug/mL Cath LL-37 or PBS as indicated. The cells were harvested at different time points and the mRNA was extracted and assessed by RT-PCR for tryptase, chymase and Mmp-9 expression. (b) Cell culture supernatant from bone marrow derived MCs was taken after 24 hrs of Cath LL-37 challenge. MMP and MMP-9 specific activities were measured by assessing cleavage of MMP substrate in the presence or absence of a specific MMP-9 inhibitor, as indicated. (c) Bone marrow derived MCs were treated, as indicated, for 24 hrs before collecting supernatants and assessing degranulation percentage by measuring β-hexosaminidase release. (d) Cultured mouse MCs were challenged with the indicated concentrations of Cath LL-37 for 24 or 48 hrs before supernatants were collected and the amounts of IL-6 secretion were measured. (e) Il-6 mRNA expression was measured by RT-PCR in mouse skin biopsies after 0, 1, 4, and 24 hrs of Cath LL-37 challenge in WT and MC deficient mice, as indicated. Statistics: t-test ***p<0.001 (n=3).
Mast cell deficient (C57BL/6-KitWsh^−/−) mice were bred. KitWsh^−/− mice bearing the W-sash (Wsh) inversion mutation have MC deficiency, but lack anemia and sterility. […] Wild type mice (C57BL/6) were utilized as control. Mice were shaved 24 hrs before intradermal injection with 50 μl of 50 μM or 320 μM of Cath LL-37 or filtered PBS (n=3), twice a day for 2 days and skin biopsies were taken after 72 hours of observation. Total RNA was extracted and purified by RNeasy Mini Kit (QIAGEN science). For the time course observation, skin biopsies of WT and MC deficient mice were taken at 1, 4, and 24 hrs after Cath LL-37 injection.
BMMC reconstitution in KitWsh−/− mice. 4×10^6 cells of C57BL/6 mature BMMCs were diluted in filtered PBS and injected into the shaved back skin of 6 week old C57BL/6− KitWsh^−/− mice (400 μl; 8×50 μl injections) intradermally. After 6 weeks, MCs were confirmed as resident cells in skin by toluidine blue staining.
(§3) Total-MMP activities were determined by following previously reported study (Kanada et al., 2012). To determine MMP-9 activity, MMP-9 specific inhibitor I (Thermo Fisher Scientific, Chicago, IL) was used.
as §1
Cath LL-37 was injected intradermally into mast cell deficient mice (KitWsh^−/−) and compared the resulting inflammation with Wild Type (WT) mice. […]

[3] = test system: bone marrow derived mouse MCs; experiment: In vitro Cath LL-37 challenge of bone marrow derived mouse MCs; type: cell-based
Procedure: as §2
Primary MCs were generated from mouse bone marrow and cultured as previously written (Wang et al., 2011). MCs were cultured in Stemline® II Hematopoietic Stem Cell Expansion Medium (Sigma-Aldrich).
as §3, §1
Degranulation percentage was assessed by measuring the activity of β-hexosaminidase in the supernatants as previously described (Wang et al., 2012).
ELISA (ELISA MAX™ Deluxe; BioLegend, San Diego, CA) was utilized to determine mouse IL-6 according to the manufacturer's instructions, normalized to total protein content.
To confirm that mast cells are responsive to direct Cath LL-37 stimulation, bone marrow derived mouse MCs were stimulated with different concentrations of Cath LL-37 at different time points. […] MMP-9 protease activity in the culture medium of MCs stimulated with Cath-LL37 for 24 hrs was confirmed by fluorescence enzymatic activity assay using an MMP specific substrate and an MMP-9 specific inhibitor (FIG. 2b).

[4] = MC-deficient mice after Cath LL-37
[5] = WT mice, 0, 1, 4, 24 hrs after Cath LL-37
[6] = Cath LL-37 stimulated MCs, at 5 hrs
[7] = Cath LL-37 stimulated MCs, at 5 hrs, p<0.001

Tryptase mRNA expression in skin ([1]; WT mice, p<0.01): dramatically increased | Chymase mRNA expression in skin ([1]; WT mice, p<0.05): significantly increased
Substance: pituitary adenylate cyclase-activating peptide [PACAP]
Tnf-a mRNA expression in skin ([1]; MC deficient mice): not in MC deficient mice | Cxcl2 mRNA expression in skin ([1]; WT mice, p<0.01): significantly increased | Tnf-a mRNA expression in skin ([1]; WT mice, p<0.01): significantly increased | Mmp-1 mRNA expression in skin ([1]; WT mice, p<0.05): significantly increased | Mmp-9 mRNA expression in skin ([1]; WT mice, p<0.05): significantly increased

chymase expression in skin (time course) [2, 4]: not detectable | tryptase expression in skin (time course) [2, 4]: not detectable | chymase expression in skin (time course) [2, 5]: expressed immediately after injection | tryptase expression in skin (time course) [2, 5]: expressed immediately after injection
Substance: Cath LL-37: LL-37 Cathelicidin antimicrobial peptide, C-terminal 37 amino acids of human cathelicidin
clinical end point observation of skin ([2]; KitWsh-/- mice, intradermal Cath LL-37, at 72 hrs): did not develop any rosacea-like features | IL-6 mRNA expression in skin ([2]; WT mice following Cath LL-37 challenge): Increased | MMP activity in skin ([2]; WT mice, 50 μM and 320 μM Cath LL-37 injected): increases in a dose dependent manner | clinical end point observation of skin ([2]; WT mice, intradermal Cath LL-37 twice a day for 2 days, at 72 hrs): rosacea-like inflammation | Mmp-9 mRNA expression in skin from MC deficient mice compared with WT and WT MC-reconstituted KitWsh-/- mice ([2]; after peptide challenge, 72 hours, p<0.01 vs WT, p<0.05 vs reconstituted): significantly lower | IL-6 mRNA expression in skin ([2]; mast cell deficient mice following Cath LL-37 challenge): not in mast cell deficient mice | secreted IL-6 (ELISA) ([3]; 24 and 48 hrs of stimulation, Cath LL-37 20 nM and 40 nM): high levels | Klk5 mRNA expression [3, 6]: not detectable | Klk6 mRNA expression [3, 6]: not detectable | Mmp-1a mRNA expression [3, 6]: not detectable | Mmp-9 mRNA expression [3, 7]: significantly higher | Tryptase mRNA expression [3, 7]: significantly higher | chymase mRNA expression [3, 7]: significantly higher | MMP-9 protease activity in the culture medium ([3]; MCs stimulated with Cath-LL37 for 24 hrs, MMP specific substrate and MMP-9 specific inhibitor): confirmed | MC degranulation (β-hexosaminidase release) ([3]; low concentration of Cath LL-37 (20 nM), supernatants after 24 hrs): able to induce degranulation
